This is an account of results in patent US12091411B2, “IRAK degraders and uses thereof” (Kymera Therapeutics, Inc., priority 2022, dated 2024).

The experiment addresses T1, IRAK4 (Homo sapiens, UniProt Q9NWZ3).
T1 construct: Degradation of IRAK4 in OCI-LY10 was quantitatively measured using Meso Scale Discovery technology; endogenous in cells; host or cells: OCI-LY10
T1 sequence (Q9NWZ3 1-460): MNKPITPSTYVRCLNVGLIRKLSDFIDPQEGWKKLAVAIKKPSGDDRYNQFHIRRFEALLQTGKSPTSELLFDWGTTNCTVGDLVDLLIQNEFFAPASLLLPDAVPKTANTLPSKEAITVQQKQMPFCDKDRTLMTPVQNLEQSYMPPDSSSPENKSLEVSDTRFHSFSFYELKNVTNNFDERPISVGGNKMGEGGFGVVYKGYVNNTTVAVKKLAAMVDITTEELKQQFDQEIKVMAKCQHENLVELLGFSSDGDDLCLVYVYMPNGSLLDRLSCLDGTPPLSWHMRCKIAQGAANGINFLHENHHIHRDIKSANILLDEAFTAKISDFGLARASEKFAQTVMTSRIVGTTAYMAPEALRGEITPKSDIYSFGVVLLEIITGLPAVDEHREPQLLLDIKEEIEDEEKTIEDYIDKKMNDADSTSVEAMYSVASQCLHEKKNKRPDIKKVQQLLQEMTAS
Kind of experiment: IRAK4 MSD Degradation in OCI-LY10. In kind it is cell-based. The settings on record: OCI-LY10 cells, MSD. On the procedure: Degradation of IRAK4 in OCI-LY10 was quantitatively measured using Meso Scale Discovery technology. […] Compounds were then added to the assay plates with a final top concentration of 1 to 10 μM in a 1:3 dilution series with total of 8 doses. The assay plates were then incubated for 4 to 24 hours at 37° C. under 5% CO2. […] To prepare MSD assay plates (Meso Scale Discovery Catalog number L15XA-3), the plates were coated with 2 μg/mL capture antibody (mouse Anti-IRAK4 antibody [2H9], ab119942) in PBS, at 40 μL/well. […] Cell lysates were then added to MSD assay plates and the plates were incubated at room temperature for 1 hour. The plates were then washed 3 times with 150 μL/well TBST buffer and 25 μL/well primary detection antibody (rabbit Anti-IRAK4 antibody [Y279], from Abcam. Catalog number ab32511, 1 μg/mL). The assay plates were then incubated at room temperature for 1 hour, washed 3 times with 150 μL/well TBST buffer and 25 μL/well secondary detection antibody, SULFO-TAG anti-rabbit antibody were added (anti-rabbit antibody from Meso Scale Discovery, Catalog number R32AB-1, 1 μg/mL). The assay plates were then incubated at room temperature for 1 hour, washed 3 times with 150 μL/well TBST buffer, and 150 μL/well MSD reading buffer (Meso Scale Discovery catalog number R92TC-2) was added. The plates were then analyzed by a MSD reader (Meso Scale Discovery, Model Quick Plex SQ 120). The data was then analyzed by software Prism 7.0 from GraphPad and the dose-depended IRAK4 degradation were fit using a three-parameter logistic equation to calculate DC50.
The letter codes for IRAK4 DC50 include: A (<0.01 μM); B (0.01 to <0.1 μM); C (0.1 to 0.2 μM); and D (>0.2 μM or not tested).

The mark [1] stands for this setting: 4 hrs incubation, read-out: IRAK4 degradation in OCI-LY10 at 4 hrs: DC50.
The mark [2] stands for this setting: 24 hrs incubation, read-out: IRAK4 degradation in OCI-LY10 at 24 hrs: DC50.

As a reminder, the DC50 is the midpoint of the concentration-degradation curve.

Like-named read-outs stand apart in the source and are kept apart here.

Consider `Cn1c(=O)n(C2CCC(=O)NC2=O)c2cccc(C#CCC3CCN(C[C@H]4CC[C@H](n5cc(NC(=O)c6cnn7ccc(N8C[C@H]9CC8CO9)nc67)c(C(F)F)n5)CC4)CC3)c21` (stereo partly drawn) [I-15], for which the DC50 runs as follows: under setting [1], above 200 nM; under setting [2], above 200 nM.
With `Cn1c(=O)n(C2CCC(=O)NC2=O)c2cccc(C#CCCOC3CCN(C[C@H]4CC[C@H](n5cc(NC(=O)c6cnn7ccc(N8C[C@H]9C[C@@H]8CO9)nc67)c(C(F)F)n5)CC4)CC3)c21` (stereo partly drawn) [I-16], the DC50 is below 10 nM under setting [1] and above 200 nM under setting [2].
Turning to `Cn1c(=O)n(C2CCC(=O)NC2=O)c2cccc(C#CC3CCCN(C[C@H]4CC[C@H](n5cc(NC(=O)c6cnn7ccc(N8C[C@H]9C[C@@H]8CO9)nc67)c(C(F)F)n5)CC4)C3)c21` (stereo partly drawn) [I-17], the DC50 is, setting by setting: under setting [1], 10 to 100 nM; under setting [2], above 200 nM.
The corresponding values for `Cn1c(=O)n(C2CCC(=O)NC2=O)c2cccc(C#CCOC3CCN(C[C@H]4CC[C@H](n5cc(NC(=O)c6cnn7ccc(N8C[C@H]9C[C@@H]8CO9)nc67)c(C(F)F)n5)CC4)CC3(F)F)c21` (stereo partly drawn) [I-18] are 10 to 100 nM and above 200 nM.
On to `Cn1c(=O)n(C2CCC(=O)NC2=O)c2cccc(C#CCOC3CC4CC3CN4C[C@H]3CC[C@H](n4cc(NC(=O)c5cnn6ccc(N7C[C@H]8C[C@@H]7CO8)nc56)c(C(F)F)n4)CC3)c21` (stereo partly drawn) [I-19], for which the DC50 runs as follows: under setting [1], 100 to 200 nM; under setting [2], above 200 nM.
Consider `Cn1c(=O)n(C2CCC(=O)NC2=O)c2cccc(C#CCOC3CN(C[C@H]4CC[C@H](n5cc(NC(=O)c6cnn7ccc(N8C[C@H]9C[C@@H]8CO9)nc67)c(C(F)F)n5)CC4)C3)c21` (stereo partly drawn) [I-20], for which the DC50 is, setting by setting: under setting [1], below 10 nM; under setting [2], above 200 nM.
The corresponding values for `Cn1c(=O)n(C2CCC(=O)NC2=O)c2cccc(C#CCO[C@H]3CCN(C[C@H]4CC[C@H](n5cc(NC(=O)c6cnn7ccc(N8C[C@H]9C[C@@H]8CO9)nc67)c(C(F)F)n5)CC4)C3)c21` (stereo partly drawn) [I-21] are below 10 nM and above 200 nM.
For the molecule `Cn1c(=O)n(C2CCC(=O)NC2=O)c2cccc(C#CCO[C@@H]3CCN(C[C@H]4CC[C@H](n5cc(NC(=O)c6cnn7ccc(N8C[C@H]9C[C@@H]8CO9)nc67)c(C(F)F)n5)CC4)C[C@@H]3F)c21` (stereo partly drawn) [I-22], the DC50 was 10 to 100 nM under setting [1] and above 200 nM under setting [2].
The corresponding values for `Cn1c(=O)n(C2CCC(=O)NC2=O)c2cccc(C#CCO[C@H]3CCN(C[C@H]4CC[C@H](n5cc(NC(=O)c6cnn7ccc(N8C[C@H]9C[C@@H]8CO9)nc67)c(C(F)F)n5)CC4)C[C@@H]3F)c21` (stereo partly drawn) [I-23] are 10 to 100 nM and above 200 nM.
`Cn1c(=O)n(C2CCC(=O)NC2=O)c2cccc(C#CCO[C@@H]3CCN(C[C@H]4CC[C@H](n5cc(NC(=O)c6cnn7ccc(N8C[C@H]9C[C@@H]8CO9)nc67)c(C(F)F)n5)CC4)C3)c21` (stereo partly drawn) [I-24]: the half-maximal degradation concentration (DC50) reads like this: under setting [1], 10 to 100 nM; under setting [2], above 200 nM.
The corresponding values for `C[C@H]1CN(C[C@H]2CC[C@H](n3cc(NC(=O)c4cnn5ccc(N6C[C@H]7C[C@@H]6CO7)nc45)c(C(F)F)n3)CC2)CC[C@@H]1OCC#Cc1cccc2c1n(C)c(=O)n2C1CCC(=O)NC1=O` (stereo partly drawn) [I-25] are 10 to 100 nM and below 10 nM.
`C[C@H]1CN(C[C@H]2CC[C@H](n3cc(NC(=O)c4cnn5ccc(N6C[C@H]7C[C@@H]6CO7)nc45)c(C(F)F)n3)CC2)CC[C@H]1OCC#Cc1cccc2c1n(C)c(=O)n2C1CCC(=O)NC1=O` (stereo partly drawn) [I-26]: the DC50 was 10 to 100 nM under setting [1] and above 200 nM under setting [2].
As to `Cn1c(=O)n(C2CCC(=O)NC2=O)c2cccc(C#CC3CN(C[C@H]4CC[C@H](n5cc(NC(=O)c6cnn7ccc(N8C[C@H]9C[C@@H]8CO9)nc67)c(C(F)F)n5)CC4)CCO3)c21` (stereo partly drawn) [I-27], the DC50 by setting is: under setting [1], 10 to 100 nM; under setting [2], above 200 nM.
Take `Cn1c(=O)n(C2CCC(=O)NC2=O)c2cccc(C#CCOC3CCN(C[C@H]4C[C@H](n5cc(NC(=O)c6cnn7ccc(N8C[C@H]9C[C@@H]8CO9)nc67)c(C(F)F)n5)C4)CC3)c21` (stereo partly drawn) [I-28]: the DC50 is below 10 nM under setting [1] and above 200 nM under setting [2].
Regarding `C[C@H]1C[C@@H](OCC#Cc2cccc3c2n(C)c(=O)n3C2CCC(=O)NC2=O)CCN1C[C@H]1CC[C@H](n2cc(NC(=O)c3cnn4ccc(N5C[C@H]6C[C@@H]5CO6)nc34)c(C(F)F)n2)CC1` (stereo partly drawn) [I-29], the DC50 reads like this: under setting [1], below 10 nM; under setting [2], above 200 nM.
With `Cn1c(=O)n(C2CCC(=O)NC2=O)c2cccc(C#CCOC3C4CC3CN(C[C@H]3CC[C@H](n5cc(NC(=O)c6cnn7ccc(N8C[C@H]9C[C@@H]8CO9)nc67)c(C(F)F)n5)CC3)C4)c21` (stereo partly drawn) [I-30], the DC50 is, setting by setting: under setting [1], 10 to 100 nM; under setting [2], above 200 nM.
Take `Cn1c(=O)n(C2CCC(=O)NC2=O)c2cccc(C#CCN3CCN(C[C@H]4CC[C@H](n5cc(NC(=O)c6cnn7ccc(N8C[C@H]9C[C@@H]8CO9)nc67)c(C(F)F)n5)CC4)CC3)c21` (stereo partly drawn) [I-31, N-[3-(difluoromethyl)-1-[4-[[4-[3-[1-(2,6-dioxo-3-piperidyl)-3-methyl-2-oxo-benzimidazol-4-yl]prop-2-ynyl]piperazin-1-yl]methyl]cyclohexyl]pyrazol-4-yl]-5-[(1R,4R)-2-oxa-5-azabicyclo[2.2.1]heptan-5-yl]pyrazolo[1,5-a]pyrimidine-3-carboxamide]: the DC50 is below 10 nM under setting [1] and above 200 nM under setting [2].
For the molecule `C[C@@H]1C[C@@H](OCC#Cc2cccc3c2n(C)c(=O)n3C2CCC(=O)NC2=O)CCN1C[C@H]1CC[C@H](n2cc(NC(=O)c3cnn4ccc(N5C[C@H]6C[C@@H]5CO6)nc34)c(C(F)F)n2)CC1` (stereo partly drawn) [I-33], the DC50 was below 10 nM under setting [1] and above 200 nM under setting [2].
The matching figures for `Cn1c(=O)n(C2CCC(=O)NC2=O)c2cccc(C#CCO[C@@H]3CCN(C[C@H]4CC[C@H](n5cc(NC(=O)c6cnn7ccc(N8C[C@H]9C[C@@H]8CO9)nc67)c(C(F)F)n5)CC4)C[C@@H]3F)c21` (stereo partly drawn) [I-35]: 10 to 100 nM and above 200 nM.
On to `Cn1c(=O)n(C2CCC(=O)NC2=O)c2cccc(C#CCO[C@H]3CCN(C[C@H]4CC[C@H](n5cc(NC(=O)c6cnn7ccc(N8C[C@H]9C[C@@H]8CO9)nc67)c(C(F)F)n5)CC4)C[C@H]3F)c21` (stereo partly drawn) [I-36], for which the DC50 under setting [1] lay in the range of 10 to 100 nM and the DC50 under setting [2] is above 200 nM.
`C[C@H]1CN(C[C@H]2CC[C@H](n3cc(NC(=O)c4cnn5ccc(N6C[C@H]7C[C@@H]6CO7)nc45)c(C(F)F)n3)CC2)CC[C@@H]1OCC#Cc1cccc2c1n(C)c(=O)n2C1CCC(=O)NC1=O` (stereo partly drawn) [I-37]: the DC50 by setting is: under setting [1], below 10 nM; under setting [2], below 10 nM.
Turning to `COc1ccc2c(c1C#CCN1CCN(C[C@H]3CC[C@H](n4cc(NC(=O)c5cnn6ccc(N7C[C@H]8C[C@@H]7CO8)nc56)c(C(F)F)n4)CC3)CC1)n(C)c(=O)n2C1CCC(=O)NC1=O` (stereo partly drawn) [I-39], the DC50 under setting [1] was below 10 nM and the DC50 under setting [2] is above 200 nM.
Consider `Cn1c(=O)n(C2CCC(=O)NC2=O)c2cccc(C#CC3CCN(C[C@H]4CC[C@H](n5cc(NC(=O)c6cnn7ccc(N8C[C@H]9C[C@@H]8CO9)nc67)c(C(F)F)n5)CC4)CC3)c21` (stereo partly drawn) [I-40], for which the DC50 runs as follows: under setting [1], below 10 nM; under setting [2], above 200 nM.
Take `O=C1CCN(c2cncc3c(C#CCO[C@@H]4CCN(C[C@H]5CC[C@H](n6cc(NC(=O)c7cnn8ccc(N9C[C@H]%10C[C@@H]9CO%10)nc78)c(C(F)F)n6)CC5)C[C@@H]4F)cccc23)C(=O)N1` [I-41]: the DC50 is below 10 nM under setting [1] and above 200 nM under setting [2].
With `C[C@@H]1CN(C[C@H]2CC[C@H](n3cc(NC(=O)c4cnn5ccc(N6C[C@H]7C[C@@H]6CO7)nc45)c(C(F)F)n3)CC2)CCN1CC#Cc1cccc2c1n(C)c(=O)n2C1CCC(=O)NC1=O` (stereo partly drawn) [I-42], the DC50 under setting [1] was 10 to 100 nM and the DC50 under setting [2] was above 200 nM.
In the case of `CN1C(=O)CCC(n2c(=O)n(C)c3c(C#CCN4CCN(C[C@H]5CC[C@H](n6cc(NC(=O)c7cnn8ccc(N9C[C@H]%10C[C@@H]9CO%10)nc78)c(C(F)F)n6)CC5)CC4)cccc32)C1=O` (stereo partly drawn) [I-43], the DC50 is, setting by setting: under setting [1], above 200 nM; under setting [2], above 200 nM.
Consider `Cn1c(=O)n(C2CCC(=O)NC2=O)c2cccc(C#CCN3CCN(C[C@H]4CC[C@H](n5cc(NC(=O)c6cnn7ccc(N8C[C@H]9OC[C@@H]8O9)nc67)c(C(F)F)n5)CC4)CC3)c21` (stereo partly drawn) [I-44], for which the DC50 is 10 to 100 nM under setting [1] and above 200 nM under setting [2].
